Measured values as given in the NIST ThermoML archive (doi:10.1021/je030130y).

Assay: xn = mol fraction of the nth substance listed
Settings: 101.3 kPa, Liquid; for viscosity: Capillary tube (Ostwald / Ubbelohde) method; for mass density: Pycnometric method

Clc1ccccc1 [chlorobenzene] + CN(C)C=O
Settings	mass density, 298.15 K [kg/m3]	mass density, 303.15 K [kg/m3]	mass density, 308.15 K [kg/m3]	mass density, 313.15 K [kg/m3]	viscosity, 298.15 K [mPa·s]	viscosity, 303.15 K [mPa·s]	viscosity, 308.15 K [mPa·s]	viscosity, 313.15 K [mPa·s]
x2 = 0	1100.9	1095.8	1090.8	1085.1	0.756	0.714	0.673	0.635
x2 = 0.1473	1083.5	1078.5	1073.6	1068.1	0.79	0.745	0.701	0.661
x2 = 0.2093	1076.3	1071.3	1066.5	1063.1	0.804	0.757	0.712	0.671
x2 = 0.2762	1068.1	1063.2	1058.3	1052.9	0.818	0.77	0.723	0.681
x2 = 0.4032	1051.2	1046.3	1041.5	1036.3	0.838	0.788	0.739	0.696
x2 = 0.4661	1042.2	1037.3	1032.5	1027.2	0.847	0.795	0.745	0.702
x2 = 0.6084	1020.2	1015.4	1010.6	1005.4	0.862	0.808	0.757	0.714
x2 = 0.7009	1003.8	999.1	994.5	989.4	0.856	0.803	0.752	0.709
x2 = 0.7842	988.1	983.4	978.7	973.7	0.846	0.794	0.744	0.702
x2 = 0.9351	957.7	953	948.3	943.4	0.818	0.769	0.721	0.683

Clc1ccccc1 [chlorobenzene] + c1ccccc1
Settings	mass density, 298.15 K [kg/m3]	mass density, 303.15 K [kg/m3]	mass density, 308.15 K [kg/m3]	mass density, 313.15 K [kg/m3]	viscosity, 298.15 K [mPa·s]	viscosity, 303.15 K [mPa·s]	viscosity, 308.15 K [mPa·s]	viscosity, 313.15 K [mPa·s]
x2 = 0	1100.9	1095.8	1090.8	1085.1	0.756	0.714	0.673	0.635
x2 = 0.1206	1076.5	1071.4	1066.4	1060.7	0.744	0.699	0.656	0.618
x2 = 0.2642	1046.5	1041.4	1036.3	1030.7	0.727	0.682	0.639	0.601
x2 = 0.3982	1017.5	1012.4	1007.3	1001.7	0.711	0.667	0.623	0.585
x2 = 0.4644	1002.8	997.7	992.6	987	0.702	0.659	0.616	0.578
x2 = 0.5321	987.7	982.5	977.3	971.7	0.694	0.65	0.607	0.57
x2 = 0.6074	970.4	965.2	960	954.5	0.683	0.64	0.598	0.561
x2 = 0.7069	946.8	941.6	936.4	930.9	0.665	0.623	0.582	0.545
x2 = 0.8131	920.9	915.7	910.5	905	0.643	0.601	0.562	0.527
x2 = 0.9162	895	889.8	884.6	879.2	0.621	0.583	0.545	0.512

CN(C)C=O [dimethylformamide] + c1ccccc1
Settings	mass density, 298.15 K [kg/m3]	mass density, 303.15 K [kg/m3]	mass density, 308.15 K [kg/m3]	mass density, 313.15 K [kg/m3]	viscosity, 298.15 K [mPa·s]	viscosity, 303.15 K [mPa·s]	viscosity, 308.15 K [mPa·s]	viscosity, 313.15 K [mPa·s]
x1 = 0.1076	881.1	876	870.8	865.4	0.622	0.585	0.547	0.515
x1 = 0.2069	888.4	883.5	878.4	873.3	0.641	0.603	0.564	0.531
x1 = 0.3124	896.3	891.4	886.5	881.5	0.662	0.622	0.582	0.549
x1 = 0.4132	904.2	899.4	894.6	889.6	0.688	0.645	0.602	0.567
x1 = 0.5148	911.7	906.9	902.2	897.2	0.712	0.67	0.627	0.592
x1 = 0.6145	918.6	913.7	908.9	904	0.731	0.688	0.644	0.608
x1 = 0.7093	925	920.2	915.4	910.3	0.747	0.703	0.659	0.622
x1 = 0.8084	931.6	927	922.2	917.2	0.763	0.718	0.673	0.636
x1 = 0.8998	936.8	932.1	927.4	922.5	0.78	0.734	0.689	0.651
x1 = 1	944.5	939.8	935.1	930.2	0.803	0.756	0.71	0.673
